The nature of the series: Solubility in water. Type of series: physicochemical. Conditions: 500 mg upon stirring in 8 oz of room temperature water.

Counter-ions that a name gives are not always drawn.

On to `Cn1c(=O)c2c([nH]c(=O)n2C)n(C)c1=O` [1,3,7-trimethyluric acid sodium salt], for which the solubility in water entry was “dissolved completely”.
